Molecular target: T1, recombinant PTP1B (catalytic domain) (Homo sapiens, UniProt P18031)
T1 construct: The enzymatic activities of the PTP1B catalytic domain were determined at 30 °C by monitoring the hydrolysis of pNPP
T1 sequence (P18031 3-277 limits assumed): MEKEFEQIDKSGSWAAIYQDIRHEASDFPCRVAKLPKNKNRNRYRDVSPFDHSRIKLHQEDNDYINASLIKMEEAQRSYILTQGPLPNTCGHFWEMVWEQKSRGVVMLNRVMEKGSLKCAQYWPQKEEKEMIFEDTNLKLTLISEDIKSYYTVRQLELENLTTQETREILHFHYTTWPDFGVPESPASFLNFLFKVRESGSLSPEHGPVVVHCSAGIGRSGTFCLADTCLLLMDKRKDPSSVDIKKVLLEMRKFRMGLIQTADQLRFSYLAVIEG
Assay: PTP1B inhibitory assay (pNPP hydrolysis)
Type: biochemical
Details: in vitro; pNPP substrate, 30 °C, pH 6.5
Method: The enzymatic activities of the PTP1B catalytic domain were determined at 30 °C by monitoring the hydrolysis of pNPP. Dephosphorylation of pNPP generates product pNP, which was monitored at an absorbance of 405 nm. In a typical 100 μL assay mixture containing 50 mmol/L 3-[N-morpholino] propanesulfonic acid (MOPs), pH 6.5, 2 mmol/L pNPP, and 30 nmol/L recombinant PTP1B, activities were continuously monitored and the initial rate of the hydrolysis was determined using the early linear region of the enzymatic reaction kinetic curve.

Structure (SMILES) | IC50
CC(C)=CCCC(C)=CCCC(C)=CCCC1=CCC(O)C2(C(N)=O)CC(=O)OC12 (stereo not drawn) [Compound 2] | > 50 µM
CC(C)=CCCC(C)=CCCC(C)=CCCC1=CCC(O)C2(C(=O)O)CC(=O)NC12 (stereo not drawn) [Compound 3] | 33 µM
CC(C)=CCC/C(C)=C/CC/C(C)=C/CCc1ccc(O)c(CC(=O)O)c1 [Compound 4] | 14 µM

These reach a lower IC50. Values come first.

IC50 | Structure (SMILES)
5.2 µM | CC(C)=CCCC(C)=CCCC(C)=CCCC1=CCC2OC1NC=C2C=O (stereo not drawn) [Compound 1]
8.7 µM | CC(C)=CCC/C(C)=C/CC/C(C)=C/CC\C(C=O)=C/C=C/C(C=O)=C/N [Compound 5]

System: HCT-116 cell line
Assay: cytotoxicity against HCT-116 cancer cell line
Type: cell-based
Details: Homo sapiens

Structure (SMILES) | IC50
CC(C)=CCCC(C)=CCCC(C)=CCCC1=CCC2OC1NC=C2C=O (stereo not drawn) [Compound 1] | 11.6 µM
